Read-outs that look alike come from different tables or passages of the source.
Assays:
[1] = test system: MeWo (human melanoma cells); assay: Cell viability assay (resazurin), cytotoxic activity against solid tumours; assay type: cell-based; conditions: for IC50: read-out: IC50 MeWo (Melanoma; BRAF WT); for S.I. MeWo (Selectivity Index): IC50 HaCaT divided by IC50 MeWo, mean of independent experiments
Protocol: (§1) Cells were grown in Dulbecco's Modified Eagle's Medium (DMEM) supplemented with 100 U/mL penicillin, 100 µg/mL streptomycin and 10% fetal bovine serum. HL60 cell line (acute myeloid leukaemia, AML) was obtained from ATCC. It was cultured in IMDM medium supplemented with 100 U/mL penicillin, 100 µg/mL streptomycin and 10% fetal bovine serum. U937 (AML) and Jurkat cells (ALL) were obtained from DMSZ, Braunschweig, Germany, and ATCC, respectively. They were cultivated in RPMI medium, supplemented with 100 U/mL penicillin, 100 µg/mL streptomycin and 10% fetal bovine serum. […] All cell lines were cultured at 37 ° C with 5% CO2 in a humidified incubator. Cell culture reagents were purchased from Biowest. Exponentially growing cells (3000-6000 cells per well) were seeded in 96-well plates. After 24 hours, cells were treated with the drugs for 72 hours. The cell viability was then estimated with the resazurin assay, a colorimetric technique based on the capability of viable cells to reduce the blue reagent resazurin to the pink-soluble product resorufin. The amount of resorufin produced is proportional to the number of viable cells. Briefly, cells were washed once with phosphate buffered saline (PBS) and 150 µL resazurin (20 µg/mL in medium) was added to each well. […] Cell viability was calculated as a percentage compared to non-treated cells. The results were expressed as the means ± standard error of the mean (SEM). All data are from at least three independent experiments. The selectivity index (S.I.) values were calculated over each cancer cell line as the mean of the IC50 value in the non-malignant cell line (HaCaT) by the IC50 in the respective cancer cell line obtained in each independent experiment.

[2] = test system: A549 (human lung adenocarcinoma cells); assay: as above; assay type: cell-based; conditions: for IC50: read-out: IC50 A549 (Lung adenocarcino ma); for S.I. A549 (Selectivity Index): IC50 HaCaT divided by IC50 A549, mean of independent experiments
Protocol: as §1

[3] = test system: T24 (human bladder cancer cells); assay: as above; assay type: cell-based; conditions: for IC50: read-out: IC50 T24 (Bladder cancer); for S.I. T24 (Selectivity Index): IC50 HaCaT divided by IC50 T24, mean of independent experiments
Protocol: as §1

HaCaT cells = assay: Cell viability assay (resazurin), cytotoxicity in non-malignant cells; assay type: cell-based, human; conditions: read-out: IC50 HaCaT (Non-malignant keratinocyte)
Protocol: Cells were grown in Dulbecco's Modified Eagle's Medium (DMEM) supplemented with 100 U/mL penicillin, 100 µg/mL streptomycin and 10% fetal bovine serum. HL60 cell line (acute myeloid leukaemia, AML) was obtained from ATCC. It was cultured in IMDM medium supplemented with 100 U/mL penicillin, 100 µg/mL streptomycin and 10% fetal bovine serum. U937 (AML) and Jurkat cells (ALL) were obtained from DMSZ, Braunschweig, Germany, and ATCC, respectively. They were cultivated in RPMI medium, supplemented with 100 U/mL penicillin, 100 µg/mL streptomycin and 10% fetal bovine serum. […] All cell lines were cultured at 37 ° C with 5% CO2 in a humidified incubator. Cell culture reagents were purchased from Biowest. Exponentially growing cells (3000-6000 cells per well) were seeded in 96-well plates. After 24 hours, cells were treated with the drugs for 72 hours. The cell viability was then estimated with the resazurin assay, a colorimetric technique based on the capability of viable cells to reduce the blue reagent resazurin to the pink-soluble product resorufin. The amount of resorufin produced is proportional to the number of viable cells. Briefly, cells were washed once with phosphate buffered saline (PBS) and 150 µL resazurin (20 µg/mL in medium) was added to each well. The plates were incubated for 3 hours at 37 °C, 5% CO2, and finally optical densities were measured at 540 and 620 nm with a multiwell plate spectrophotometer reader (Multiskan EX Labsystems). Cell viability was calculated as a percentage compared to non-treated cells. The results were expressed as the means ± standard error of the mean (SEM). All data are from at least three independent experiments.

[4] = test system: Jurkat (Acute lymphoblastic leukaemia); assay: Antileukemic activity, cell viability (CCK-8 Cell Counting Kit); assay type: cell-based; conditions: Homo sapiens, 18 h incubation, compounds 0 - 100 µM, read-out: IC50 Cancer cells Jurkat (Acute lymphoblastic leukaemia)
Protocol: (§2) HaCaT cells (human keratinocytes, reference control), A549 (human lung adenocarcinoma cells), MeWo (human melanoma cells) and T24 (human bladder cancer cells) were purchased from Cell Lines Service (CLS). Cells were grown in Dulbecco's Modified Eagle's Medium (DMEM) supplemented with 100 U/mL penicillin, 100 µg/mL streptomycin and 10% fetal bovine serum. HL60 cell line (acute myeloid leukaemia, AML) was obtained from ATCC. It was cultured in IMDM medium supplemented with 100 U/mL penicillin, 100 µg/mL streptomycin and 10% fetal bovine serum. U937 (AML) and Jurkat cells (ALL) were obtained from DMSZ, Braunschweig, Germany, and ATCC, respectively. They were cultivated in RPMI medium, supplemented with 100 U/mL penicillin, 100 µg/mL streptomycin and 10% fetal bovine serum. OPM-2 cell line (MM), was obtained from DMSZ, Braunschweig, Germany and cultured in RPMI medium supplemented with 100 U/mL penicillin, 100 µg/mL streptomycin, 10% fetal bovine serum and 1X GlutaMAXTM. All cell lines were cultured at 37 ° C with 5% CO2 in a humidified incubator. Cell culture reagents were purchased from Biowest.
(§3) For the leukemic cell lines, the CCK-8 Cell Counting Kit (Dojindo Molecular Technologies) was used according to manufacturers instructions. Briefly, 50.000 cells were seeded in each well of a 96 well plate, and they were treated with increased amounts (0 - 100 µM) of each of the compounds, and incubated for 18 h at 37 °C, 5% CO2. After this period, 7 µl of the CCK-8 reagent were added to each well, and cells were further incubated for 2 h at 37 °C, 5% CO2. OD at 450 nm was obtained using a MultiskanTM GO microplate reader (Thermo Fisher Scientific, Waltham, MA, EE.UU). Cell viability in each condition was normalized to the measurement obtained in the non treated samples (100%), and were represented as average ± standard error of the mean (SEM).

[5] = test system: HL60 (Acute myeloid leukaemia); assay: as above; assay type: cell-based; conditions: Homo sapiens, HL-60; 18 h incubation, compounds 0 - 100 µM; read-out: IC50 Cancer cells HL60 (Acute myeloid leukaemia)
Protocol: as §2, §3

[6] = test system: U937 (Acute myeloid leukaemia); assay: as above; assay type: cell-based; conditions: Homo sapiens, U-937; 18 h incubation, compounds 0 - 100 µM; read-out: IC50 Cancer cells U937 (Acute myeloid leukaemia)
Protocol: as §2, §3

OPM-2 (Multiple myeloma) = assay: as above; assay type: cell-based; conditions: Homo sapiens, 18 h incubation, compounds 0 - 100 µM, read-out: IC50 Cancer cells OPM-2 (Multiple myeloma)
Protocol: as §2, §3

[7] = Homo sapiens, MeWo, 72 h treatment, resazurin assay, mean ± SEM
[8] = Homo sapiens, A549, 72 h treatment, resazurin assay, mean ± SEM
[9] = Homo sapiens, 72 h treatment, resazurin assay, mean ± SEM
[10] = Homo sapiens, HaCaT, 72 h treatment, resazurin assay, mean ± SEM
[11] = 72 h treatment, resazurin assay, mean ± SEM

Structure (SMILES) | IC50 [1, 7] [µM] | S.I. MeWo (Selectivity Index) [1] | IC50 [2, 8] [µM] | S.I. A549 (Selectivity Index) [2] | IC50 [3, 9] [µM] | S.I. T24 (Selectivity Index) [3] | IC50 (HaCaT cells; [10]) [µM] | IC50 [4] [µM] | IC50 [5] [µM] | IC50 [6] [µM] | IC50 (OPM-2 (Multiple myeloma)) [µM] | IC50 [1, 11] [µM] | IC50 [2, 11] [µM] | IC50 [3, 11] [µM] | IC50 (HaCaT cells; [11]) [µM] | IC50 ([1]; Homo sapiens, MeWo, 72 h) [µM] | IC50 ([2]; Homo sapiens, A549, 72 h) [µM] | IC50 ([3]; Homo sapiens, 72 h) [µM] | IC50 (HaCaT cells; Homo sapiens, HaCaT, 72 h) [µM]
CS[C@@H]1O[C@H](COC(C)=O)[C@@H](OC(C)=O)[C@H](N=C=S)[C@H]1OC(C)=O [Compound 13β, Methyl 2,4,6-tri-O-acetyl-3-isothiocyanato-1,3-dideoxy-1-thio-β-D-glucopyranoside] | 55.9 ± 4.8 | 1.3±0.0 | 51.4 ± 9.2 | 1.5±0.2 | 42 ± 7.5 | 1.8±0.2 | 70 ± 4.6 | 18.7 | ~13 | ~24.2 | 24.9 |  |  |  |  |  |  |  | 
C[S+]([O-])CCCCN=C=S (stereo not shown) [SFN, sulforaphane, reference compound] | 12.9 ± 4.2 | 1.7±0.4 | 10.6 ± 2.1 | 1.7 ± 0.2 | 6.3 ± 0.2 | 2.6±0.3 | 16.6 ± 2.4 |  |  |  |  |  |  |  |  |  |  |  | 
CC(=O)OC[C@H]1O[C@H]([S@+]([O-])c2ccccc2)[C@H](OC(C)=O)[C@@H](N=C=S)[C@@H]1OC(C)=O [(RS)-18α, Phenyl 2,4,6-tri-O-acetyl-3-isothiocyanato-1,3-dideoxy-1[(R)-sulfinyl]-α-D-glucopyranose] | 55.3 ± 7.6 | 1.0±0.4 | 55.7 ± 8.4 | 1.1±0.4 | 48.6 ± 8.6 | 1.3±0.5 | 51 ± 17.6 | 46.3 | 7.4 | ~47.3 | 19.6 |  |  |  |  |  |  |  | 
CC(=O)OC[C@H]1O[C@H](Sc2ccccc2)[C@H](OC(C)=O)[C@@H](N=C=S)[C@@H]1OC(C)=O [Compound 15α, Phenyl 2,4,6-tri-O-acetyl-3-isothiocyanato-1,3-dideoxy-1-thio-α-D-glucopyranoside] | 18.8 ± 2.4 | 1.0±0.1 | 14.1 ± 2.9 | 1.4±0.3 | 15.3 ± 2.1 | 1.2±0.1 | 17.7 ± 1 | 14.4 | 4.2 | 8.3 | 10.2 |  |  |  |  |  |  |  | 
CC(=O)OC[C@H]1O[C@@H]([S@+]([O-])c2ccccc2)[C@H](OC(C)=O)[C@@H](N=C=S)[C@@H]1OC(C)=O [(RS)-18β, Phenyl 2,4,6-tri-O-acetyl-3-isotiocianato-1,3-dideoxy-1[(R)-sulfinyl]-β-D-glucopyranose] | 21.9 ± 2.9 | 1.8±0.2 | 21.9 ± 2.5 | 1.7±0.2 | 17.2 ± 1.2 | 2.2±0.4 | 39.4 ± 8.7 |  |  |  |  |  |  |  |  |  |  |  | 
N.N.[Cl][Pt][Cl] [Cisplatin, reference compound] |  |  |  |  |  |  |  |  |  |  |  | 2.2 ± 1.1 | 13.5 ± 2.7 | 1.6 ± 0.5 | 2.1 ± 0.7 |  |  |  | 
CC[S@@+]([O-])[C@H]1O[C@H](COC(C)=O)[C@@H](OC(C)=O)[C@H](N=C=S)[C@H]1OC(C)=O [(RS)-17α, Ethyl 2,4,6-tri-O-acetyl-3-isothiocyanato-1,3-dideoxy-1[(R)-sulfinyl]-α-D-glucopyranse] | 113 ± 39.2 | > 1.1 | 108 ± 25.7 | > 1.1 | 65.6 ± 13.3 | > 1.6 | > 100 | 38.1 | 50.3 | 41.2 |  |  |  |  |  |  |  |  | 
CC(=O)OC[C@H]1O[C@@H](Sc2ccccc2)[C@H](OC(C)=O)[C@@H](N=C=S)[C@@H]1OC(C)=O [Compound 15β, Phenyl 2,4,6-tri-O-acetyl-3-isothiocyanato-1,3-dideoxy-1-thio-β-D-glucopyranoside] | 30.2 ± 9.5 | 1.1±0.0 | 32.2 ± 10.2 | 1.3±0.1 | 27.1 ± 8.7 | 1.2±0.1 | 32.2 ± 10.2 |  |  |  |  |  |  |  |  |  |  |  | 
CSCCCN=C=S [Compound 4, (3-isothiocyanatopropyl)(methyl)sulfane, reference compound] |  |  |  |  |  |  |  | 8.9 | 9 |  | 12 |  |  |  |  | 31.6 ± 5.7 | 31.1 ± 7.6 | 14.4 ± 1.1 | 43.9 ± 3.2
CC(=O)OC[C@H]1O[C@H](S(=O)(=O)c2ccccc2)[C@H](OC(C)=O)[C@@H](N=C=S)[C@@H]1OC(C)=O [Compound 21α, Phenyl 2,4,6-tri-O-acetyl-3-isothiocyanato-1,3-dideoxy-1-sulfonyl-α-D-glucopyranose] |  | 2.0±0.3 |  | 1.9±0.2 |  | 2.4±0.4 |  |  |  |  |  |  |  |  |  | 22.9 ± 5.9 | 22.9 ± 3.7 | 18.5 ± 0.6 | 45 ± 8.9

Reference: patent publication EP4534542A1, “THIOSUGAR BASED ISOTHIOCYANATES AND USES THEREOF” (Universidad de Sevilla, priority 2023, dated 2025)
